These results are taken from ChEMBL document CHEMBL3045901, “Aryldiones incorporating a [1,4,5]oxadiazepane ring. Part 2: chemistry and biology of the cereal herbicide pinoxaden” (Pest Manag Sci, 2011).

Data set [1] deals with Avena fatua. The data set can be described thus: Herbicidal activity against Avena fatua assessed as weed control at 30 g/ha under greenhouse measured after 21 days by post-emergence test. It is filed as functional.
Data set [2] has as its system Alopecurus myosuroides. The data set can be described thus: Herbicidal activity against Alopecurus myosuroides assessed as weed control at 30 g/ha under greenhouse measured after 21 days by post-emergence test. Type of data set: functional.
In data set [3] the test system is Lolium perenne. Nature of the data set: Herbicidal activity against Lolium perenne (perennial ryegrass) assessed as weed control at 30 g/ha under greenhouse measured after 21 days by post-emergence test. Type of data set: functional.
The subject of data set [4] is Setaria faberi. Nature of the data set: Herbicidal activity against Setaria faberi (Giant Foxtail) assessed as weed control at 30 g/ha under greenhouse measured after 21 days by post-emergence test. It is filed as functional.
Data set [5] has as its system Hordeum vulgare. Nature of the data set: Herbicidal activity against Hordeum vulgare (barley) assessed as weed control at 30 g/ha under greenhouse measured after 21 days by post-emergence test. It is filed as functional.
Data set [6] relates to Triticum aestivum. Nature of the data set: Herbicidal activity against Triticum aestivum (wheat) assessed as weed control at 30 g/ha under greenhouse measured after 21 days by post-emergence test. It is filed as functional.
The nature of data set [7]: Aqueous hydrolysis of the compound at pH 7 at 20 degC. Type of data set: physicochemical. Conditions: aqueous solution, read-out: DT50 (converted).
Data set [8] in a line: Solubility in water at pH7 at 20 degC. Conditions: pH 7. It is filed as physicochemical.
Data set [9] in a line: Dissociation constant, pKa of the compound. Type of data set: physicochemical.
A short description of data set [10]: Aqueous hydrolysis of the compound at pH 4 at 20 degC. Type of data set: physicochemical. The following applies: aqueous solution, read-out: DT50 (converted).
The nature of data set [11]: Aqueous hydrolysis of the compound at pH 5 at 20 degC. Type of data set: physicochemical. The following applies: aqueous solution, read-out: DT50 (converted).
A short description of data set [12]: Aqueous hydrolysis of the compound at pH 9 at 20 degC. It is filed as physicochemical. Conditions: aqueous solution, read-out: DT50 (converted).
Data set [13] is described as follows: Lipophilicity, log P of the compound at pH5 at 20 degC. The following applies: buffer, pH 5. It is filed as physicochemical.
The nature of data set [14]: Solubility in water at pH5 at 20 degC. Type of data set: physicochemical. The following applies: pH 5.
The nature of data set [15]: Lipophilicity, log P of the compound at pH7 at 20 degC. Type of data set: physicochemical. The following applies: buffer, pH 7.
For data set [16], the system named is Triticum aestivum. The data set can be described thus: Drug level in winter Triticum aestivum cv. Soisson (wheat) measured after 6 hr. The following applies: in vivo. It is filed as ADME, organism-based.
The test system of data set [17] is Lolium perenne. Nature of the data set: Drug level in Lolium perenne (perennial ryegrass) measured at 0.1 g/l after 6 hr in presence of safener cloquintocet-mexyl. Type of data set: ADME, organism-based. Conditions: in vivo.
In data set [18] the test system is Avena fatua. The data set can be described thus: Drug level in Avena fatua at 0.1 g/l measured after 6 hr in presence of safener cloquintocet-mexyl. The following applies: in vivo. Type of data set: ADME, organism-based.
For data set [19], the system named is Hordeum vulgare. Nature of the data set: Drug level in winter Hordeum vulgare cv. Manitou (barley) at 0.1 g/l measured after 6 hr in presence of safener cloquintocet-mexyl. It is filed as ADME, organism-based. Conditions: in vivo.
For data set [20], the system named is Avena fatua. The data set can be described thus: Drug level in Avena fatua at 0.1 g/l measured after 6 hr. It is filed as ADME, organism-based. Conditions: in vivo.
Data set [21] has as its system Hordeum vulgare. The data set can be described thus: Drug metabolism in winter Hordeum vulgare cv. Manitou (barley) assessed as total inactive metabolites at 0.1 g/l measured after 16 hr. Type of data set: ADME, organism-based. The following applies: in vivo.
For data set [22], the system named is Lolium perenne. Nature of the data set: Drug level in Lolium perenne (perennial ryegrass) measured at 0.1 g/l after 6 hr. The following applies: in vivo. It is filed as ADME, organism-based.
A short description of data set [23]: Solubility in water at 25 degC. Type of data set: physicochemical.
In data set [24] the test system is Hordeum vulgare. The data set can be described thus: Drug level in winter Hordeum vulgare cv. Manitou (barley) at 0.1 g/l measured after 6 hr. The following applies: in vivo. It is filed as ADME, organism-based.
The test system of data set [25] is Triticum aestivum. The data set can be described thus: Drug level in winter Triticum aestivum cv. Soisson (wheat) measured after 6 hr in presence of safener cloquintocet-mexyl. Type of data set: ADME, organism-based. The following applies: in vivo.
The nature of data set [26]: Lipophilicity, log P of the compound at 25 degC. Type of data set: physicochemical. Conditions: octanol/water.

The structures appear in SMILES notation. In brackets after ≈: the same amount, converted by molar mass.

For the molecule `CCc1cc(C)cc(CC)c1C1C(=O)N2CCOCN2C1=O` (stereo not drawn), the Activity is listed as 40% in data set [1]; 0% in [2]; 10% in data set [3]; 10% in [4]; 0% in data set [5]; 0% in [6].
Consider `CCc1cc(C)cc(CC)c1C1C(=O)N2COC(C)CN2C1=O` (stereo not drawn), for which the Activity turned out to be 100% in data set [1]; 40% in [2]; 60% in [3]; 90% in data set [4]; 20% in data set [5]; 10% in data set [6].
Take `CCc1cc(C)cc(CC)c1C1C(=O)N2COC(CC)CN2C1=O` (stereo not drawn): the Activity is on record as 100% in [1]; 90% in [2]; 100% in data set [3]; 90% in data set [4]; 20% in [5]; 60% in data set [6].
By solubility is commonly meant the dissolved amount per volume that the medium holds. A word on the pKa: it is the negative logarithm of the acid dissociation constant. A higher pKa goes with a group that holds its proton tightly. For orientation: logD means lipophilicity at a set pH, counting ionised and neutral species. A high value points to higher lipophilicity. On to `CCc1cc(C)cc(CC)c1C1C(=O)N2CCOCCN2C1=O` [PINOXADEN DIONE], for which the half-life in data set [7] is less than 1 days; in data set [10], less than 1 days; in data set [11] it was less than 1 days; in data set [12], less than 1440 min. Also, the solubility was more than 300 mg/mL in data set [8] and 5200 µg/mL (≈ 16.4 mM) in [14]. For the same molecule, the pKa in data set [9] came out at 3.82. Further, the Activity worked out at 100% in data set [1]; 100% in data set [2]; 90% in data set [3]; 90% in data set [4]; 0% in [5]; 10% in [6]. The results for the logD in [13] and in data set [15] were 0.62 and -1.1, respectively.
The term logP denotes a log measure of how a compound divides between an organic and an aqueous phase. A lower logP goes with lower lipophilicity. Consider `CCc1cc(C)cc(CC)c1-c1c(OC(=O)C(C)(C)C)n2n(c1=O)CCOCC2` [PINOXADEN], for which the Drug uptake in data set [16] turned out to be 0%; in data set [17], 0%; in [18] it was 0%; in data set [19] it was 1.5%; in data set [20], 0%; in [22], 0%. The Drug uptake in [24] was found to be 2.1%; in [25], 0%. Moreover, the half-life in data set [7] was 14.9 days; in data set [10], 24.1 days; in data set [11], 25.3 days; in data set [12] it was 432 min. Further, in [21], the Drug metabolism was found to be 49.6%. Besides, the concentration in solution in data set [23] (solubility) came to 200 µg/mL (≈ 0.499 mM). This molecule also yielded a logP in data set [26] of 3.2.
